According to patent publication US20250042912A1, “NOVEL NON-FLUORINATED QUINOLONE COMPOUND AND USE THEREOF” (priority 2021, published 2025):
Values after ≈ are worked out from the molar mass of the structure shown.

Tests used:
[1] = system: Staphylococcus epidermidis ATCC 35983; test: Minimum inhibitory concentration (MIC) assay, Staphylococcus epidermidis ATCC 35983; assay type: cell-based; conditions: ATCC35983, aerobic culture 35+/-2°C, 16 to 20 hours, read with naked eyes
Protocol: On the day of the experiment, the compound in the flask was dissolved in 100% DMSO until the concentration of mother liquor was 0.4 mg/mL. If the mother liquor was not used on the same day, it was stored at −80° C. for future use.
The compound mother liquor and standard antibiotics were subjected to 2-fold gradient dilution with corresponding solvents on a 96-microwell plate (V-bottom) to obtain 100× working solutions (Well 1 to Well 7) in sequence. Among them, the concentrations of the compound were 400 μg/mL, 200 μg/mL, 100 μg/mL, 50 μg/mL, 25 μg/mL, 12.5 μg/mL, 6.25 μg/mL, and 3.125 μg/mL. 100% DMSO was used as growth control (Well 8). As such, the compound motherplate was obtained.
One day before the experiment, aerobic bacteria (Staphylococcus epidermidis) stored in a cryogenic tube at −80° C. were scribed on an MHA (Cation-adjusted Mueller-Hinton agar) plate. The aerobic bacteria were placed in a 35+/−2° C. incubator for 18-24 hours of aerobic cultivation.
On the day of the experiment, the plate was taken out, clones were picked from the plate and suspended in physiological saline. Then, the turbidity of the bacterial suspension (containing 1.0-2.0×10^8 CFU/mL) was adjusted to OD600=0.2 by a turbidity meter. Then, the adjusted bacterial suspension was diluted to an appropriate concentration with the assay culture medium: about 5×10^5 CFU/mL for aerobic bacteria, and about 1×10^6 CFU/mL for anaerobic bacteria. As such, the inoculating solution was obtained.
2 μl of 2-fold series dilution of 100× high-concentration working solution was transferred from a compound mother plate (prepared in step 1) to a round-bottom 96-well plate, and then 198 μL of bacterial inoculating solution (prepared in step 2) was added to each well to obtain an MIC assay plate. Therefore, the final assay concentrations of the compound were 4 μg/mL, 2 μg/mL, 1 μg/mL, 0.5 μg/mL, 0.25 μg/mL, 0.125 μg/mL, 0.06 μg/mL and 0.03 μg/mL. The total volume of each well on the assay plate was 200 μL: containing 1% DMSO, about 5×10^5 CFU/mL of aerobic bacteria and about 1×10^6 CFU/mL of anaerobic bacteria.
All assay plates for aerobic bacteria were aerobically cultured at 35+/−2° C. for 16 to 20 hours, and all assay plates for anaerobic bacteria were anaerobically cultured in an anaerobic incubator at 35+/−2° C. for 48 hours.

[2] = system: CXCL1/KC; test: Acne model in mice: CXCL1 level in left ear tissue; assay type: in vivo, Balb/C mice
Protocol: (§1) Experimental strain: Propionibacterium acnes ATCC 6919 (Beijing Biobw Biotechnology Co., Ltd.) Experimental animals: Balb/C mice (Zhejiang Vital River Laboratory Animal Technology Co., Ltd.) Balb/C mice were grouped and numbered, and adaptively fed for one week. On the day of modeling, Propionibacterium acnes was taken, and OD600 was measured using a microplate reader. BH1 culture medium was diluted to OD600=1 (about 5×10^8 CFU/mL), centrifuged to discard supernatant, and the remaining culture was diluted to 1×10^8 CFU/mL with PBS. Once the molding began, the mice were anesthetized with a small animal anesthesia machine, the air flow and isoflurane content of the anesthesia machine were adjusted, and the mice were placed in an anesthesia induction chamber for anesthesia induction. […] Mouse BCA protein detection: after Propionibacterium acnes was injected for 48 hours, the BCA protein detection was detected by using the BCA protein concentration assay kit. The left ear of mouse was homogenized with 1 mL of PBS and the dilution factor equivalent to a mass volume ratio of 1:9 was calculated, then centrifuged at 1500 g for 10 minutes. […] […] was measured with a microplate reader, the standard curves were plotted, and the BCA concentrations were calculated. […]

[3] = system: IL-6; test: Acne model in mice: IL-6 level in left ear tissue; assay type: in vivo, Balb/C mice
Protocol: as §1

[4] = Balb/C mice, left ear homogenate, 48 hours after injection of Propionibacterium acnes, 15 μL applied at 4, 20, 28, 44 hours, drugs as hydrochloride
[5] = compared with acne model group, p<0.001, in words

MIC [1]: 0.06 µg/mL (≈ 0.153 µM)
SMILES: CN(C)c1cc2c(cn1)-c1ccc3c(=O)c(C(=O)O)cn(C4CC4)c3c1COC2 [Compound 6]
CXCL1 Mean ± SD [2, 4]: 191.5 ± 32.71 pg/mg
CXCL1 content in the left ear tissues of mice after treatment [2, 5]: significantly reduced
IL-6 Mean ± SD [3, 4]: 322.4 ± 43.33 pg/mg
IL-6 content in the left ear tissues of mice after treatment [3, 5]: significantly reduced
